The subject of assay [1] is day 9 iPSC-derived metanephric mesenchyme. The assay can be described thus: CHIR effect on day 9 iPSC-derived metanephric mesenchyme (substrate release and compaction). To be noted: day 9 cells, CHIR pulse; ascribed to collective cell contractility rather than motility. The class given is cell-based, human. From the text: We next turned to a bottom-up approach using human iPSC-derived nephron progenitor organoids to assess the effects of mechanical microenvironment changes on nephron differentiation (FIG. 6B). When differentiated, these roughly mimic the progression in transcriptional states and marker expression profiles of mouse nephron progenitors in vivo, despite some species-specific differences (61-65). To test perturbations to cell collective tension during nephron progenitor commitment, we first differentiated PSCs through late primitive streak and posterior intermediate mesoderm (PIM) lineages to metanephric mesenchyme according to established protocols (66), confirming by qPCR (FIG. 10). We also validated that induced metanephric mesenchyme cells go on to form later nephron structures including ECAD+tubules containing GATA3+ distal nephron cells and Na^+/[…]/2Cl^− cotransporter SLC12A1+ loop of Henle cells after 21 days in culture (FIG. 6C). Day 9 induced metanephric mesenchyme cells were dissociated and plated into low-attachment round-bottom plates where they formed spheroids that we assayed for early nephrogenesis (FIG. 6D). In similar assays, a CHIR pulse is typically applied after re-aggregation of cells to mimic Wnt9b-driven β-catenin signaling during nephron progenitor commitment in vivo (61,62,67,68). […]

In assay [2] the test system is day 9 metanephric mesenchyme spheroids (human iPSC-derived nephron progenitors). The assay can be described thus: Nephron progenitor spheroid differentiation assay (SIX2 / LHX1 immunofluorescence). The class given is cell-based. To be noted: 48 hr; for LHX1+ early nephron cells in spheroids (marker positive pixel area as % of projection area): single agent in FGF9 basal media, 3 μM CHIR or 10 μM Y27632; for LHX1+ early nephron cells in spheroids, agent combined with CHIR: 3 μM CHIR plus 10 μM Y27632 or 30 μM blebbistatin. The protocol:
We then decided to mimic the reduction in anisotropic stress that occurs over the tip life-cycle in vivo by adding the ROCK inhibitor Y-27632 or the non-muscle myosin II inhibitor blebbistatin to day 9 metanephric mesenchyme spheroids for 48 hr. These temporal parameters were optimized to capture early transitions of cells through the SIX2+ state and to accumulate differentiation events sparsely, enabling quantification. Spheroids were analyzed by immunofluorescence for SIX2 and the pre-tubular aggregate/renal vesicle (early nephron) marker LHX1 (FIG. 6E). […] These LHX1+ cells clustered and began to express the later medial nephron marker Jag1, indicating appropriate progression of differentiation after perturbation (FIG. 6D).
Nephron progenitor spheroid differentiation assays. Day 9 cap mesenchyme-stage nephron progenitors were lifted with Accutase and re-plated at 50,000 cells per well in 96-well ultra low attachment round-bottom plates (Corning 7007) in Advanced RPMI 1640 Medium, Glutamax, 1× Penn/Strep and 10 ng ml^−1 FGF9 (“basal media”) plus the specified perturbation conditions, which included 3 μM CHIR, 10 μM Y27632 (StemCell Technologies, 72304) from a 10 mM stock in DMSO, and/or 30 μM(S) (S)-(−)-blebbistatin (Tocris, 1852) from a 30 mM stock in DMSO. Cells were then aggregated by plate centrifugation at 300 g for 30 s. After 48 hr in culture, spheroids were collected and transferred to 1.7 mL tubes using a p200 pipette tip widened by cutting the tip to size with a razor blade. Excess media was removed and spheroids were fixed in ice-cold 4% paraformaldehyde in PBS for 15 min. Spheroids were then stained for immunofluorescence microscopy similar to kidneys (see Kidney immunofluorescence imaging.) via primary and secondary antibody incubation for 48 hr each at 4 C and washes in PBSTX totaling 6 hours. Primary antibodies and dilutions included mouse anti-Lhx1 (1:50, 4F2, Developmental Studies Hybridoma Bank, University of Iowa, RRID: AB_531784) and rabbit anti-Six2 (1:600, 11562-1-AP, Proteintech, RRID: AB_2189084). Spheroids were then incubated in 1 μg ml^−1 DAPI in PBS at 4 C for 1 hr before washing once in ice-cold PBS. Spheroids were transferred for imaging using a widened p200 pipette tip to a cover-slip bottom 24-well plate (Greiner 662892). Excess PBS was removed and spheroids were incubated with ˜20 μl of FocusClear (Cedarlane Labs, FC-101) for 20 min at room temperature prior to confocal imaging. Spheroids were imaged using 5 μm z-steps.
Quantification of spheroid cell differentiation. Maximum intensity projections of spheroids were generated and further processed in FIJI. DAPI signal was used to segment spheroids and calculate their areas in number of pixels. SIX2 and LHX1 signal was segmented using 50 pix rolling ball background subtraction and thresholding to remove background signal. The total numbers of SIX2+ and LHX1+ pixels were then divided by the total number of DAPI+ pixels to normalize positive pixels by spheroid area.

Assay [3] concerns Rho-associated protein kinase (ROCK). The conditions noted are these: cited from earlier work.

On to `Cc1c[nH]c(-c2cnc(NCCNc3ccc(C#N)cn3)nc2-c2ccc(Cl)cc2Cl)n1` [CHIR], for which, in assay [1], the “Cell release from substrate and compaction” value was “induced cell release from their substrate and compaction”. The “LHX1+ early nephron cells in spheroids (marker positive pixel area as % of projection area)” value in assay [2] was “increased differentiation to the LHX1+ state”.
For `Cc1cncc2cccc(S(=O)(=O)N3CCCNC[C@@H]3C)c12` [H1152], the “Nephron formation, high dose” value in assay [3] (high dose H1152) is on record as “decreases in nephron formation”. Further, the “Nephron formation, low dose” value in assay [3] (low dose H1152) is given as “increases in nephron formation”.
As for `C[C@@H](N)[C@H]1CC[C@H](C(=O)Nc2ccncc2)CC1` [Y-27632], in assay [2], the “LHX1+ early nephron cells in spheroids, agent combined with CHIR” value is listed as “synergistic effect” and the “LHX1+ early nephron cells in spheroids (marker positive pixel area as % of projection area)” value is given as “did not by itself induce LHX1+ cells”. Further, the “SIX2+ nephron progenitors in spheroids (marker positive pixel area as % of projection area)” value in assay [2] (10 μM Y27632 in FGF9 basal media, without CHIR) is reported as “increased cell conversion to and/or self-renewal of SIX2+ progenitors”.
For the molecule `Cc1ccc2c(c1)C(=O)[C@]1(O)CCN(c3ccccc3)C1=N2` [blebbistatin, (S)-(−)-blebbistatin], in assay [2], the “LHX1+ early nephron cells in spheroids, agent combined with CHIR” value is “synergistic effect”.

Source of the values: patent US20250333708A1, “MANIPULATING NEPHRON DIFFERENTIATION RATE IN INDUCED HUMAN PLURIPOTENT STEM CELL ORGANOIDS AND TISSUES BY ENGINEERING MECHANICS OF THE MICROENVIRONMENT” (THE TRUSTEES OF THE UNIVERSITY OF PENNSYLVANIA, priority 2022, published 2025).
